Source: patent US10045978B2 (AB SCIENCE, priority 2010, dated 2018)

Tested on: patients with indolent forms of mastocytosis with handicap, D816V absent in at least one infiltrated organ
Assay: Example 1 phase 2a study, response assessment
Format: in vivo, human
Parameters: Hamilton rating Δ Mean ± SD / QLQ-C30 Symptom Δ Mean ± SD / QLQ-C30 Global Health Δ Mean ± SD / AFIRMM Δ Mean ± SD / Hamilton rating ΔMean ± SD / QLQC30 Symptom ΔMean ± SD / QLQC30 Global Health ΔMean ± SD / AFIRMM ΔMean ± SD: scale not given here
Settings: for AFIRMM ΔMean ± SD / Flushes per day ΔMean ± SD / Hamilton rating ΔMean ± SD / Micturitions per day ΔMean ± SD / OPA Score Change: (2, 3, 4) to (0, 1) / OPA Score No change / Pruritus ΔMean ± SD / QLQC30 Functional ΔMean ± SD / QLQC30 Global Health ΔMean ± SD / QLQC30 Symptom ΔMean ± SD / Stools per day ΔMean ± SD: extension-phase cohort
Procedure: Eligible patients were aged >18 years, had previously documented indolent systemic, smoldering systemic or cutaneous mastocytosis as per the WHO classification with associated disability as the result of mast cell released mediators and had not responded to usual symptomatic treatments for more the 6 months. […] A single occurrence of this criterion was deemed sufficient for inclusion and so no systematic examination of multiple organs was carried out specifically for this study.
Patients were classified as having a handicap if after appropriate symptomatic treatments they fulfilled at least one of the following a priori criteria: number of flushes/day ≥1; pruritus score ≥6; number of stools ≥4/day; micturition frequency ≥8/day; Hamilton rating for depression ≥10; or EORTC quality-of-life questionnaire (QLQ-C30) symptom score, functional score, and global health status of >0. Patients were excluded if they experienced inadequate organ function defined via blood test levels, or an Eastern Cooperative Oncology Group performance status >2. Other exclusion criteria included: life expectancy <6 months, severe or uncontrolled medical disease, and patients who were pregnant or nursing.
In accordance to the AFIRMM study (Hermine O, et al., 2008, PLoS ONE. 3:e2266), evaluation of treatment response was based upon the change of clinical symptoms associated with a patient's handicaps at week 12 (W12) relative to baseline. Primary endpoints were daily frequency of flushes; pruritus score; and Hamilton rating for depression, as well as, daily stool and micturition frequencies; QLQ-C30 global health status, functional, and symptom scores. […] For those patients entering the extension phase, assessments were performed every 4 weeks for the first 3 months of extension, and every 12 weeks thereafter. Secondary endpoints included the W12 assessment of AFIRMM score (a validated questionnaire assessing the self-perceived severity of mastocytosis) (Hermine O, et al., 2008, PLoS ONE. 3:e2266); overall patient assessment (OPA) score; tryptase levels; and change in organ mast cell infiltration. Determination of D816V mutation and serum tryptase levels was conducted following procedures described previously (Hermine O, et al., 2008, PLoS ONE. 3:e2266). Overall clinical response analysis at W12 defined a responder as having an improvement of ≥50% in baseline handicap of a key response endpoint (Hamilton rating, flushes, or pruritus) without deterioration or emergence of handicap. Any patient with deterioration of ≥50% in any handicap, and/or with emergence of a new handicap with an increase of ≥50% from baseline was considered as worsening. Any patient who discontinued the study before W12 was considered a non responder. Discrimination between dose regimens was investigated by analyses of the ‘time to first response’, according to the initial dosage, and ‘dose at time of first response’ in key response endpoints.
Response analysis was performed on subgroups of the ITT population according to a patient's handicap at baseline and for whom response was evaluated at W12; referred to hereafter as the handicap-related population. No data imputation was implemented. The per protocol (PP) population was defined as a subset of a given handicap-related population, which in addition had presented no major protocol deviations. Summary response data are presented using descriptive statistics with mean improvement compared to baseline in each handicap cohort, regardless of disease classification. The appropriate Wilcoxon or Fisher tests were used for group comparison of baseline disease, demographic characteristics between dose level groups and response relative to baseline. Subpopulation analysis was also conducted according to initial c-Kit status.

Structure (SMILES): Cc1ccc(NC(=O)c2ccc(CN3CCN(C)CC3)cc2)cc1Nc1nc(-c2cccnc2)cs1 [masitinib, 4-(4-methylpiperazin-1-ylmethyl)-N-[4-methyl-3-(4-pyridin-3ylthiazol-2-ylamino)phenyl]benzamide]
- first response events: AFIRMM score (at 6.0 mg/kg/day): 5
- first response events: Cumulative Frequency (at 6.0 mg/kg/day): 96%
- first response events: Flush (at 6.0 mg/kg/day): 4
- first response events: Hamilton (at 6.0 mg/kg/day): 4
- first response events: Micturition (at 6.0 mg/kg/day): 1
- first response events: OPA score (at 6.0 mg/kg/day): 4
- first response events: Pruritus (at 6.0 mg/kg/day): 4
- first response events: QLQ30 Functional (at 6.0 mg/kg/day): 1
- first response events: QLQ30 Global (at 6.0 mg/kg/day): 2
- first response events: QLQ30 Symptom (at 6.0 mg/kg/day): 1
- first response events: Stool (at 6.0 mg/kg/day): 2
- first response events: Total events (at 6.0 mg/kg/day): 28
- first response events: Cumulative Frequency (at 7.5 mg/kg/day): 100%
- first response events: Flush (at 7.5 mg/kg/day): 1
- first response events: OPA score (at 7.5 mg/kg/day): 1
- first response events: QLQ30 Symptom (at 7.5 mg/kg/day): 1
- first response events: Total events (at 7.5 mg/kg/day): 3
- AFIRMM ΔMean ± SD (W4): −44.5 ± 51.6
- Flushes per day ΔMean ± SD (W4): −1.1 ± 1.8
- Hamilton rating ΔMean ± SD (W4): −5.9 ± 3.2
- Micturitions per day ΔMean ± SD (W4): −2.5 ± 3.3
- OPA Score Change: (2, 3, 4) to (0, 1) (W4): 3 (18%)
- OPA Score No change (W4): 14 (82%)
- Pruritus ΔMean ± SD (W4): −2.8 ± 3.7
- QLQC30 Functional ΔMean ± SD (W4): 8.7 ± 18.2
- QLQC30 Global Health ΔMean ± SD (W4): 8.3 ± 25.5
- QLQC30 Symptom ΔMean ± SD (W4): −4.1 ± 7.8
- Stools per day ΔMean ± SD (W4): −4.3 ± 2.6
- AFIRMM ΔMean ± SD (W12): −61.9 ± 45.9
- Flushes per day ΔMean ± SD (W12): −1.6 ± 1.5
- Hamilton rating ΔMean ± SD (W12): −4.6 ± 4.9
- Micturitions per day ΔMean ± SD (W12): −5.4 ± 2.6
- OPA Score Change: (2, 3, 4) to (0, 1) (W12): 3 (20%)
- OPA Score No change (W12): 16 (80%)
- Pruritus ΔMean ± SD (W12): −3.3 ± 3.0
- QLQC30 Functional ΔMean ± SD (W12): 11.6 ± 16.4
- QLQC30 Global Health ΔMean ± SD (W12): 16.1 ± 26.4
- QLQC30 Symptom ΔMean ± SD (W12): −7.0 ± 15.2
- Stools per day ΔMean ± SD (W12): −4.2 ± 3.0
- AFIRMM ΔMean ± SD (W24): −66.0 ± 29.9
- Flushes per day ΔMean ± SD (W24): −1.9 ± 3.1
- Hamilton rating ΔMean ± SD (W24): −2.8 ± 9.2
- Micturitions per day ΔMean ± SD (W24): −4.3 ± 5.9
- OPA Score Change: (2, 3, 4) to (0, 1) (W24): 0 (0%)
- OPA Score No change (W24): 3 (100%)
- Pruritus ΔMean ± SD (W24): −5.1 ± 4.7
- QLQC30 Functional ΔMean ± SD (W24): 15.3 ± 10.6
- QLQC30 Global Health ΔMean ± SD (W24): 18.8 ± 27.5
- QLQC30 Symptom ΔMean ± SD (W24): −19.9 ± 8.2
- Stools per day ΔMean ± SD (W24): −2.5 ± 2.1
- AFIRMM ΔMean ± SD (W36): −62.4 ± 31.8
- Flushes per day ΔMean ± SD (W36): −2.1 ± 3.5
- Hamilton rating ΔMean ± SD (W36): −10.3 ± 5.1
- Micturitions per day ΔMean ± SD (W36): −6.5 ± 6.4
- OPA Score Change: (2, 3, 4) to (0, 1) (W36): 1 (20%)
- OPA Score No change (W36): 4 (80%)
- Pruritus ΔMean ± SD (W36): −6.9 ± 3.5
- QLQC30 Functional ΔMean ± SD (W36): 5.8 ± 16.7
- QLQC30 Global Health ΔMean ± SD (W36): 21.7 ± 26.1
- QLQC30 Symptom ΔMean ± SD (W36): −14.4 ± 6.5
- Stools per day ΔMean ± SD (W36): −0.7 ± 3.2
- AFIRMM ΔMean ± SD (W48): −64.3 ± 48.5
- Flushes per day ΔMean ± SD (W48): −2.8 ± 2.9
- Hamilton rating ΔMean ± SD (W48): −11.5 ± 6.4
- Micturitions per day ΔMean ± SD (W48): −7.0 ± 2.8
- OPA Score Change: (2, 3, 4) to (0, 1) (W48): 2 (33%)
- OPA Score No change (W48): 4 (67%)
- Pruritus ΔMean ± SD (W48): −5.2 ± 4.4
- QLQC30 Functional ΔMean ± SD (W48): 0.7 ± 16.7
- QLQC30 Global Health ΔMean ± SD (W48): 12.5 ± 14.7
- QLQC30 Symptom ΔMean ± SD (W48): −10.3 ± 6.4
- Stools per day ΔMean ± SD (W48): −2.0 ± 0.0
- AFIRMM ΔMean ± SD (W60): −61.1 ± 32.9
- Flushes per day ΔMean ± SD (W60): −2.3 ± 2.9
- Hamilton rating ΔMean ± SD (W60): −8.3 ± 7.5
- Micturitions per day ΔMean ± SD (W60): −6.0 ± 4.2
- OPA Score Change: (2, 3, 4) to (0, 1) (W60): 4 (44%)
- OPA Score No change (W60): 5 (56%)
- Pruritus ΔMean ± SD (W60): −4.6 ± 4.3
- QLQC30 Functional ΔMean ± SD (W60): 11.6 ± 11.2
- QLQC30 Global Health ΔMean ± SD (W60): 23.1 ± 25.3
- QLQC30 Symptom ΔMean ± SD (W60): −12.9 ± 8.3
- Stools per day ΔMean ± SD (W60): −4.7 ± 2.9
